Data published in patent US12564609B2, “Hematopoietic stem cell engraftment with a combination of agents” (The Board of Trustees of the Leland Stanford Junior …, priority 2020, dated 2026).

Columns and labels:
[1] = test system: mouse Lin−Sca1+c-Kit+CD48− cells; experiment: In vitro HSC culture, cell counting and live/dead viability assay (mouse); format: cell-based
Procedure: (§1) A. Schematic of treatment protocol. C57BL/6 mice were injected with three different doses of AZA (1.25, 2.5 and 5 mg/kg/d) for 3 days. 24 h after last AZA injection BM was analyzed for HSC-depletion and Ki67 intracellular protein expression. B. Overlay histogram of Ki67 intracellular protein expression in LT-HSC (gated from live, Lin^−Sca1^+c-Kit^+CD150^+CD48^− cells) in mice treated with AZA 1.25 mg/kg, 2.5 mg/kg and 5 mg/kg/d for 3 consecutive days. C. Mean fluorescence intensity (MFI) of Ki67 intracellular protein expression in LT-HSC, ST-HSC, MPP2, MPP3/4 and myeloid progenitors (MP). Data were pooled from 2 independent experiments and represent mean±SD (n=7). Statistics were calculated Mann-Whitney test (*P<0.05; **P<0.01; ***P<0.001). […] After 48 h % live/dead cells was assessed by using EarlyTox Live/Dead Assay Kit. E. Proliferation curves of FACS-sorted mouse Lin^−Sca1^+c-Kit^+CD48^− in the presence of indicated concentrations of AZA (left) and cell viability as assessed by % of Calcein AM positive cells after 48 h of cell culture (right). […] Statistics were calculated with Mann-Whitney test (*P<0.05; **P<0.01; ***P<0.001). F. Proliferation curves of FACS-sorted human Lin^−CD34^+CD38^− cells in the presence of indicated concentrations of AZA (left) and cell viability as assessed by % of Calcein AM positive cells after 48 h of cell culture (right). […]

[2] = test system: human Lin−CD34+CD38− cells; experiment: In vitro HSC culture, cell counting and live/dead viability assay (human); format: cell-based
Procedure: as §1

[3] = AZA 0.1, 0.5 and 1 μg/ml at baseline and 24 h, 48 h culture with SCF and TPO
[4] = AZA concentrations 0.1 μg/ml, 48 h

Nc1ncn([C@@H]2O[C@H](CO)[C@@H](O)[C@H]2O)c(=O)n1 [AZA, 5-Azacytidine]
number of cells in culture [1, 3]: reduced the number of cells in a dose dependent manner
cell viability by Calcein AM [1, 4]: significant decrease in cell viability
number of cells in culture [2, 3]: reduced the number of cells in a dose dependent manner
cell viability by Calcein AM [2, 4]: significant decrease in cell viability
